Values quoted from earlier work, collected in patent US8709515B1, “Nutritional supplement method” (priority 2009, dated 2014).

What was measured:
albino rats = details: fed in the water to albino rats
rats = details: one eye with induced increase in intraocular pressure
[1] = tested on: selenite induced cataracts in rats

dose above which it may not be safe (cats)	SMILES	light-induced photoreceptor damage (albino rats)	retinal neuronal death (rats)	progression of cataract [1]
higher than 30 mg/day	O=C(O)CCCCC1CCSS1 (stereo not drawn) [Alpha lipoic acid]			
	O=C(O[C@@H]1Cc2c(O)cc(O)cc2O[C@@H]1c1cc(O)c(O)c(O)c1)c1cc(O)c(O)c(O)c1 [EGCG, Epigallocatechin gallate]	attenuated light-induced photoreceptor damage	attenuated retinal neuronal death	retards the progression of cataract
